Source: patent US6806230B1, “Pyrimidine derivatives and herbicides containing them” (Kumiai Chemical Industry Co., Ltd., priority 1999, dated 2004)

What was measured:
Format in all cases: in vivo
barnyard grass (Ec) = test: Test Example 2: herbicidal effects by upland soil treatment; design: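 0-5 growth inhibition grade; 5 = over 90%; 4 = 70-90%; 3 = 50-70%; 2 = 30-50%; 1 = 10-30%; 0 = under 10%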; settings: dose 100 g active ingredient per 10 ares, examined on the 21st day after treatment, standards of Table 44
In short: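 Pre-emergence test: barnyard grass and green foxtail sown in upland soil, then soil surface sprayed with wettable-powder formulation at 100 g active ingredient per 10 ares (100 l per 10 ares). Grown in greenhouse; herbicidal effect scored on a rating scale 21 days after treatment.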

green foxtail (Se) = test: as above; settings: dose 100 g active ingredient per 10 ares, examined on the 21st day after treatment, standards of Table 44;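 also: 0-5 growth inhibition grade; 5 = over 90%; 4 = 70-90%; 3 = 50-70%; 2 = 30-50%; 1 = 10-30%; 0 = under 10%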
Protocol: In a 80 cm^2 plastic pot, upland soil was filled, and seeds of barnyard grass (Ec) and green foxtail (Se) were sown and covered with soil. A wettable powder prepared in accordance with Formulation Example 1 was diluted with water and uniformly applied to the soil surface by means of a small size spray at a rate of 100 l per 10 ares, so that the dose of the active ingredient would be 100 g per 10 ares. Thereafter, cultivation was carried out in a green house, and on the 21st day after the treatment, the herbicidal effects were examined in accordance with the standards as identified in Table 44.

monochoria (Mo) = test: Test Example 1: herbicidal effects by flooded paddy field treatment; design: herbicidal effects, Mo (monochoria):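 0-5 growth inhibition grade; 5 = over 90%; 4 = 70-90%; 3 = 50-70%; 2 = 30-50%; 1 = 10-30%; 0 = under 10%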; settings: for herbicidal effects, Mo (monochoria): dose 100 g active ingredient per 10 ares, examined on the 21st day after treatment, standards of Table 44; for Herbicidal effect index, Mo: dose 100 gai/10a, examined on 21st day after treatment, index 0-5 per Table 44;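 as to Herbicidal effect index, Mo: 0-5 growth inhibition grade; 5 = over 90%; 4 = 70-90%; 3 = 50-70%; 2 = 30-50%; 1 = 10-30%; 0 = under 10%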
In short: (§1)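 Dose: 100 g active ingredient per 10 ares as a diluted wettable powder dripped onto 3 cm floodwater, one day after sowing in puddled paddy soil. Scored by a standard rating scale 21 days later following greenhouse growth.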

barnyard grass (Eo) = test: as above; design: herbicidal effects, Eo (barnyard grass):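 0-5 growth inhibition grade; 5 = over 90%; 4 = 70-90%; 3 = 50-70%; 2 = 30-50%; 1 = 10-30%; 0 = under 10%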; settings: for herbicidal effects, Eo (barnyard grass): dose 100 g active ingredient per 10 ares, examined on the 21st day after treatment, standards of Table 44; for Herbicidal effect index, Eo: dose 100 gai/10a, examined on 21st day after treatment, index 0-5 per Table 44
In short: as §1
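For Herbicidal effect index, Eo in this document: 0-5 growth inhibition grade; 5 = over 90%; 4 = 70-90%; 3 = 50-70%; 2 = 30-50%; 1 = 10-30%; 0 = under 10%.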

Compound	herbicidal effects, Ec (barnyard grass) (barnyard grass (Ec))	herbicidal effects, Se (green foxtail) (green foxtail (Se))	herbicidal effects, Mo (monochoria) (monochoria (Mo))	herbicidal effects, Eo (barnyard grass) (barnyard grass (Eo))	Herbicidal effect index, Mo (monochoria (Mo))	Herbicidal effect index, Eo (barnyard grass (Eo))
Cc1ncncc1C(N(C)C(=O)Cc1ccc(F)cc1)C(C)(C)C (racemic) [Compound 1-160]	5	5	5	5		
Cc1ncncc1C(N(C)C(=O)Cc1ccccc1)C(C)(C)C (racemic) [Compound 1-159]	5	5	5	5		
CN(C(=O)Cc1ccc(F)cc1)C(c1cncnc1C(F)(F)F)C1CCCC1 (racemic) [Compound 1-138]	5	5	5	5		
CC(Oc1ccccc1)C(=O)N(C)C(c1cncnc1C(F)(F)F)C(C)C (mixture of isomers) [Compound 1-115]	5	5			5	5
COc1ccc(SC(=O)N(C)C(c2cncnc2C(F)(F)F)C(C)C)cc1 (racemic) [Compound 1-11]	5	5				
CSc1ncncc1C(C(C)C)N(C)C(=O)Cc1ccc(Cl)cc1 (racemic) [Compound 1-151]	5	5	5	5		
CCN(C(=O)Cc1cccc(F)c1)C(c1cncnc1C(F)(F)F)C(C)C (racemic) [1-173]	5	5	5	5		
CC(C)C(c1cncnc1C(F)(F)F)N(C)C(=O)Cc1cccc(F)c1F (racemic) [Compound 1-148]	5	5	5	5		
CCCC(c1cncnc1C(F)(F)F)N(C)C(=O)Cc1ccc(Cl)cc1 (racemic) [Compound 1-114]	5	5			5	5
COC(C(=O)N(C)C(c1cncnc1C(F)(F)F)C(C)C)c1ccc(Cl)cc1 (mixture of isomers) [Compound 1-155]	4	4	5	5		
CC(C)C(c1cncnc1C(F)F)N(C)C(=O)Cc1ccccc1 (racemic) [Compound 1-163]	5	5	5	5		
CC(C)C(c1cncnc1C(F)(F)F)N(C)C(=O)Oc1ccc(F)cc1 (racemic) [1-177]	4	4	5	5		
CC(C)C(c1cncnc1C(F)F)N(C)C(=O)Cc1ccc(Cl)cc1 (racemic) [Compound 1-165]	5	5	5	5		
CC(C)C(c1cncnc1)N(C)C(=O)Cc1ccc(Cl)cc1 (racemic) [Compound 1-90]	5	5			5	5
CC(C)c1ncncc1C(C(C)C)N(C)C(=O)Cc1ccccc1 (racemic) [Compound 1-128]	5	5	4	5		
CCN(C(=O)Cc1ccc(C(F)(F)F)cc1)C(c1cncnc1C(F)(F)F)C(C)C (racemic) [1-174]	5	5	5	5		
